Laboratory results published in patent publication US6624119B1, “3-[Benz(ox/thi)azol-7-yl]-1h-pyrimidine-2,4-diones” (BASF Aktiengesellschaft, priority 1998, dated 2003).

Tests used:
Assay in all cases: greenhouse herbicidal test, post-emergence
Type in all cases: in vivo
Amaranthus retroflexus = Amaranthus retroflexus (redroot pigweed), application rates 15.6 or 7.8 kg/ha a.s., 2 to 4 weeks
Source text: (§1) The growing containers used were plastic pots containing loamy sand with approximately 3.0% of humus as the substrate. The seeds of the test plants were sown separately for each species.
(§2) For the post-emergence treatment, the test plants were first grown to a plant height of 3 to 15 cm, depending on the growth habit, and only then treated with the active ingredients which had been suspended or emulsified in water. The test plants were either sown directly and grown in the same containers or first grown separately as seedlings and transplanted into the test containers a few days prior to treatment. The rate of application for the post-emergence treatment was only 15.6 or […] of a.s. (active substance).
(§3) Depending on the species, the plants were kept at 10-25° C. or 20-35° C. The test period extended over 2 to 4 weeks. During this time, the plants were tended, and their response to the individual treatments was evaluated.
(§4) Evaluation was carried out using a scale from 0 to 100. 100 means no emergence of the plants or complete destruction of at least the aerial parts, and 0 means no damage or normal course of growth.
(§5) The plants used in the greenhouse experiments belonged to the following species: […]

Chenopodium album = Chenopodium album (lambsquarters), application rates 15.6 or 7.8 kg/ha a.s., 2 to 4 weeks
Source text: as §1, §2, §3, §4, §5

Solanum nigrum = Solanum nigrum (black nightshade), application rates 15.6 or 7.8 kg/ha a.s., 2 to 4 weeks
Source text: as §1, §2, §3, §4, §5

Abutilon theophrasti = Abutilon theophrasti (velvet leaf), application rates 15.6 or 7.8 kg/ha a.s., 2 to 4 weeks
Source text: as §1, §2, §3, §4, §5

Measured: efficacy (complete destruction; scale 0 to 100)

Cn1c(C(F)(F)F)cc(=O)n(-c2c(F)cc(Cl)c3nc(C4CCCC4)oc23)c1=O [Ia.3, 3-[4-Chloro-2-cyclopentyl-6-fluorobenzoxazol-7-yl]-1-methyl-6-trifluoromethyl-2,4-(1H,3H)-pyrimidinedione]
100%: all assays above
